Experimental data taken from patent publication US8846704B2, “Thiopyrimidine-based compounds and uses thereof” (YM Biosciences Austraila Pty Ltd, priority 2007, dated 2014).

Key:
Type in all cases: biochemical
Flt 1(h) = molecular target: T1, Flt 1(h) (Homo sapiens, UniProt P17948); assay: Upstate KinaseProfiler enzyme assay, Flt 1; conditions: 500 nM compound; read-out: Percent inhibition at 500 nM Flt 1(h)
T1 construct: purchased Upstate Biotechnology (Dundee, UK), KinaseProfiler service
Outline: (§1)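 Substrates are dissolved and diluted to working stocks in de-ionised water. Enzymes go into the assay from 10× working dilutions prepared in pH 7.0 MOPS buffer (20 mM) containing BSA 1 mg/ml, glycerol 5%, Brij-35 0.01%, β-mercaptoethanol 0.1% and EDTA 1 mM.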

KDR(h) = molecular target: T2, KDR(h) (Homo sapiens, UniProt P35968); assay: Upstate KinaseProfiler enzyme assay, KDR; conditions: 500 nM compound; read-out: Percent inhibition at 500 nM KDR(h)
T2 construct: purchased Upstate Biotechnology (Dundee, UK), KinaseProfiler service
T2 sequence (P35968 20-1356): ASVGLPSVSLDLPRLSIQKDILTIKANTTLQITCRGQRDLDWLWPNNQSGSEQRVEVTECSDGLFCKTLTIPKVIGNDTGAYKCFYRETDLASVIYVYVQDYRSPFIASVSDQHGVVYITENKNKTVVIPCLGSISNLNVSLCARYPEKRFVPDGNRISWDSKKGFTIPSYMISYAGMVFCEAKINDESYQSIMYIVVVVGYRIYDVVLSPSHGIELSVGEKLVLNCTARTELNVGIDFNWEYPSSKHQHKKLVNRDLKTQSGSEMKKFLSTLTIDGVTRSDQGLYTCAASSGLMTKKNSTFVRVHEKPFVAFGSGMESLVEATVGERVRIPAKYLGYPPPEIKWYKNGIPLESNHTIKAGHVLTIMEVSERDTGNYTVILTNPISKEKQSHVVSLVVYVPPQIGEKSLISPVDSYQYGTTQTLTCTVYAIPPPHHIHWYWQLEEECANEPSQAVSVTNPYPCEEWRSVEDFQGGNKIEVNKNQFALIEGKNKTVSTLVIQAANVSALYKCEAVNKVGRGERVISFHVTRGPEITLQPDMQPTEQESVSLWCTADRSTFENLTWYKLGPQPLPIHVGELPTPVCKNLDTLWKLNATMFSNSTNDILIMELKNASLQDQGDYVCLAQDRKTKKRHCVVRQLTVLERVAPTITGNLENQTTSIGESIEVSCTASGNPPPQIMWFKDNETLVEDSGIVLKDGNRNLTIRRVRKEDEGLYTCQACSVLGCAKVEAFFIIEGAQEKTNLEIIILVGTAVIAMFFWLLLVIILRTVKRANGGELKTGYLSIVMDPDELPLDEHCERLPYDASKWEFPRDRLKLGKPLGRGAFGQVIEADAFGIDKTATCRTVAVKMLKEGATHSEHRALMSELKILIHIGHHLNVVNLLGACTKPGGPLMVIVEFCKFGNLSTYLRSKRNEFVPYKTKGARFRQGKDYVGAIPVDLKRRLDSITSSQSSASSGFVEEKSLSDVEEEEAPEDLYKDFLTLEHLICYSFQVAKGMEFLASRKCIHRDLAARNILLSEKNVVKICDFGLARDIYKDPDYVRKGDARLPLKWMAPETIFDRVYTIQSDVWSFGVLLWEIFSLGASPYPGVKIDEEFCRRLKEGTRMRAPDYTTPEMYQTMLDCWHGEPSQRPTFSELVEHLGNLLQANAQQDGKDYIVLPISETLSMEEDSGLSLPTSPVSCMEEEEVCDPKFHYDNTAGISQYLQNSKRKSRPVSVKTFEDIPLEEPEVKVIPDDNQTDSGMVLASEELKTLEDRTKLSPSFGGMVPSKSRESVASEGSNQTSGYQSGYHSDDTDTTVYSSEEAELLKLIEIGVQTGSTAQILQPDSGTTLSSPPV
Outline: as §1

Blk(m) = molecular target: T3, Blk(m) (Mus musculus, UniProt P16277); assay: Upstate KinaseProfiler enzyme assay, Blk; conditions: 500 nM compound; read-out: Percent inhibition at 500 nM Blk(m)
T3 construct: purchased Upstate Biotechnology (Dundee, UK), KinaseProfiler service
Outline: as §1

Bmx(h) = molecular target: T4, Bmx(h) (Homo sapiens, UniProt P51813); assay: Upstate KinaseProfiler enzyme assay, Bmx; conditions: 500 nM compound; read-out: Percent inhibition at 500 nM Bmx(h)
T4 construct: purchased Upstate Biotechnology (Dundee, UK), KinaseProfiler service
T4 sequence (P51813 1-675): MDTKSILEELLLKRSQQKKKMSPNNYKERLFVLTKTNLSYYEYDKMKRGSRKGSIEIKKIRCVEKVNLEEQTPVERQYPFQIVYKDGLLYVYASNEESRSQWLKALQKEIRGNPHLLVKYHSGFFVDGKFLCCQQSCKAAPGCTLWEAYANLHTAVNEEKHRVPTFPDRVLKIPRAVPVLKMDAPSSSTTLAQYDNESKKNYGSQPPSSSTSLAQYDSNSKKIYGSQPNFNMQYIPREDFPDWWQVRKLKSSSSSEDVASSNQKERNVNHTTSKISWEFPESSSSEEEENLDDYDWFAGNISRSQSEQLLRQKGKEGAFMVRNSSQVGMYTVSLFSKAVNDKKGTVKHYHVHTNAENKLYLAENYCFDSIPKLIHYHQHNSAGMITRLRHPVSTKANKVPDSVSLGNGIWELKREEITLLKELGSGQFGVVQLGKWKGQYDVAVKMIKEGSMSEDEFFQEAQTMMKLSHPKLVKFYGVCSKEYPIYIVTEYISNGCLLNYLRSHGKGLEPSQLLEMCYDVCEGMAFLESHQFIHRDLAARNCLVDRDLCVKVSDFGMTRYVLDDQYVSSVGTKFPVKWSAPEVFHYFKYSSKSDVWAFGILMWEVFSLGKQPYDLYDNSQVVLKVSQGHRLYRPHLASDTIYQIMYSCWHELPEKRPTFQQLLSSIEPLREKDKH
Outline: as §1

BTK(h) = molecular target: T5, BTK(h) (Homo sapiens, UniProt Q06187); assay: Upstate KinaseProfiler enzyme assay, BTK; conditions: 500 nM compound; read-out: Percent inhibition at 500 nM BTK(h)
T5 construct: purchased Upstate Biotechnology (Dundee, UK), KinaseProfiler service
T5 sequence (Q06187 whole entry): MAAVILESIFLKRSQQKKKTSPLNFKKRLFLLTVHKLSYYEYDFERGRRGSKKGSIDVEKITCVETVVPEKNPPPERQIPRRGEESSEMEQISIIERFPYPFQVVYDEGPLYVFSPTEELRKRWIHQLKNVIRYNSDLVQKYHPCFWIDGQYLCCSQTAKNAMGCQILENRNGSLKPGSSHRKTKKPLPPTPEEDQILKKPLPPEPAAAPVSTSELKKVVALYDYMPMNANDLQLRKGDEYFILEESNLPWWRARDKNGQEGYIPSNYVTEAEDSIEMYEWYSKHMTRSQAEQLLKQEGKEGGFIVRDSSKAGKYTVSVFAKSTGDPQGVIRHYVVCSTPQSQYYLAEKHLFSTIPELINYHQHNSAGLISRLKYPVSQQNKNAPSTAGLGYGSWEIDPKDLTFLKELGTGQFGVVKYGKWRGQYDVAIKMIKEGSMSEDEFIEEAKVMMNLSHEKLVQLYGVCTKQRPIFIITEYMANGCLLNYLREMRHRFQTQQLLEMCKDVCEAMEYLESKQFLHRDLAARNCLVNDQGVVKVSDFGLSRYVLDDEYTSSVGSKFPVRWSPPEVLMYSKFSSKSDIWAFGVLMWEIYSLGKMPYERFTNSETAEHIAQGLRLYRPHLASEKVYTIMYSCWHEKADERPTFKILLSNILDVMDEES
Outline: as §1

Flt 4(h) = molecular target: T6, Flt 4(h) (Homo sapiens, UniProt P35916); assay: Upstate KinaseProfiler enzyme assay, Flt 4; conditions: 500 nM compound; read-out: Percent inhibition at 500 nM Flt 4(h)
T6 construct: purchased Upstate Biotechnology (Dundee, UK), KinaseProfiler service
T6 sequence (P35916 25-1363): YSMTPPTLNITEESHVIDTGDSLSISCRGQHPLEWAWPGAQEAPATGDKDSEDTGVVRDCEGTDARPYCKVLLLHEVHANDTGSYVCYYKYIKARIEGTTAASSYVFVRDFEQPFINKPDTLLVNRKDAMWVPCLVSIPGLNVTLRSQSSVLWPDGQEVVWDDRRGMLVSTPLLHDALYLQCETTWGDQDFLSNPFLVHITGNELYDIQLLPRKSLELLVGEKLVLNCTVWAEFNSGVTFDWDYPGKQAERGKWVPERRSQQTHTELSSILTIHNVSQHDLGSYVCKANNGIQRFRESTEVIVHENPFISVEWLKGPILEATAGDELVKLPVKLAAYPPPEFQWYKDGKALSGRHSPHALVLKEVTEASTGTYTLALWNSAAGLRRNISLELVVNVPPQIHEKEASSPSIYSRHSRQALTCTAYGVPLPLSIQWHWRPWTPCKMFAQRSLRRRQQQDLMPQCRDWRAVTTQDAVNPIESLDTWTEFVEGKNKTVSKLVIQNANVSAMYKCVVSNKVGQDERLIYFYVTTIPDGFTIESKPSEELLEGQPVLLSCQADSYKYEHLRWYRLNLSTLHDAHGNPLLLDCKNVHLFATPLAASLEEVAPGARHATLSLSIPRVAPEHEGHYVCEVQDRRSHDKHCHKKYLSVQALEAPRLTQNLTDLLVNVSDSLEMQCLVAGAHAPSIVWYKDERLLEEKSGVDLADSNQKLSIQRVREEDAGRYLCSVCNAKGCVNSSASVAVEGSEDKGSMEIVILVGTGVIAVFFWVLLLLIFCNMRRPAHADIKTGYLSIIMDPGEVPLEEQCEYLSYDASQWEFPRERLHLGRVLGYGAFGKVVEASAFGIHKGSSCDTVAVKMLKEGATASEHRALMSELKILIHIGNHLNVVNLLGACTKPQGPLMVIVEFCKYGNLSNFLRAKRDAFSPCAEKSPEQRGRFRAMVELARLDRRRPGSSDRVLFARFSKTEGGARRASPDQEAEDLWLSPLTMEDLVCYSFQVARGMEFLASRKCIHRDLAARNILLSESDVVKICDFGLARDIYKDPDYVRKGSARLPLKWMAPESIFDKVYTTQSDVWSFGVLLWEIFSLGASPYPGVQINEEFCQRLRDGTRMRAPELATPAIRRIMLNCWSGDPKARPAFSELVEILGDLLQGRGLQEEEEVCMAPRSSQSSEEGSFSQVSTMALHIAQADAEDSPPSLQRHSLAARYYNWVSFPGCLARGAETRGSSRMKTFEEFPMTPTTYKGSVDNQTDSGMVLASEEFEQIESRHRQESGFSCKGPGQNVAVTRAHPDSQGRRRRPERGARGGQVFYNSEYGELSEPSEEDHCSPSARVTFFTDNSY
Outline: as §1

human CSF1-R (FMS) = molecular target: T7, human CSF1-R (FMS) (Homo sapiens, UniProt P07333); assay: Alphascreen tyrosine kinase enzyme assay, CSF-1R (FMS) kinase domain; conditions: read-out: FMS, FLT3, or HCK IC50_nM (FMS)
T7 construct: from codon I553 to Q961; GST (N); made in house; host or cells: Sf9 insect cells (baculovirus)
T7 sequence (P07333 553-961): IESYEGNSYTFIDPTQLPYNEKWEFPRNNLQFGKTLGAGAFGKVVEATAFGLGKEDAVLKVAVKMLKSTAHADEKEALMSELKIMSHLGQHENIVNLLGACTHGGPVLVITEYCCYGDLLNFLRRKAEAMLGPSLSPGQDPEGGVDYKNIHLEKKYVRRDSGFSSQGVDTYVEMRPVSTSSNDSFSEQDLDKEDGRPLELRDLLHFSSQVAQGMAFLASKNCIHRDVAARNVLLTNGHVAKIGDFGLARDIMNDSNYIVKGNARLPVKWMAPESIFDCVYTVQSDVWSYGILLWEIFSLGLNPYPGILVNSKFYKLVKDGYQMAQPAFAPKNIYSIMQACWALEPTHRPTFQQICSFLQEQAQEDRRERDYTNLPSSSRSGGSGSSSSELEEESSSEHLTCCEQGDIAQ
Experimental: For screening purposes, compounds (in 100% DMSO) were warmed at 37 degrees for at least 20 minutes before use. A […] stock was initially made in assay buffer, where the final concentration of DMSO was 0.3%. The stocks were then diluted in 384 well Optiplates (Packard) where the final concentration of the compound was […].
The kinase domain of human CSF1-R from codon I553 to Q961 was cloned into the pDest20 expression vector (Invitrogen). The CSF1-R plasmid was then transformed into competent DH10Bac cells (Gibco), and the recombinant baculovirus produced prepared for transfection into Sf9 insect cells.
Baculovirus preparations from each of the constructs were infected into either one or five liters of Sf9 cells (Invitrogen) grown in SF-900 medium (Invitrogen) to a cell density of approximately 1-2×10^6 cells/ml. Cells were infected with virus at a MOI of 0.8-3.0. Cells were harvested and lysed. Tyrosine kinase domains were purified by affinity chromatography on a glutathione-agarose column (Scientifix Pty. Ltd. catalog #: GSH-200).
Kinase assays were performed in 384 well Optiplates (Packard) using an Alphascreen Protein Tyrosine Kinase PY100 detection kit The compounds were pre-incubated with affinity purified PTK domain in the presence of phosphotyrosine assay buffer (10 mM HEPES, pH 7.5, 100 mM MgCl2, 25 mM NaCl, […] and 0.1% Tween 20) for 20 minutes. The compounds were then incubated with substrate in the presence of ATP. The substrate used was susbtrate-1 with the sequence biotin-EGPWLEEEEEAYGWMDF-NH2 [SEQ. ID. NO. 13] (final concentration […]). For HCK 80 μm ATP was used and incubated for 60 minutes. Alphascreen phosphotyrosine acceptor beads followed by streptavidin donor beads at a concentration of 1/100 in stop buffer were added to each well under subdued light and incubated for 2-3 hours., The Alphascreen plates were read on a Packard Fusion Alpha instrument.

T1 sequence (P17948 27-1338): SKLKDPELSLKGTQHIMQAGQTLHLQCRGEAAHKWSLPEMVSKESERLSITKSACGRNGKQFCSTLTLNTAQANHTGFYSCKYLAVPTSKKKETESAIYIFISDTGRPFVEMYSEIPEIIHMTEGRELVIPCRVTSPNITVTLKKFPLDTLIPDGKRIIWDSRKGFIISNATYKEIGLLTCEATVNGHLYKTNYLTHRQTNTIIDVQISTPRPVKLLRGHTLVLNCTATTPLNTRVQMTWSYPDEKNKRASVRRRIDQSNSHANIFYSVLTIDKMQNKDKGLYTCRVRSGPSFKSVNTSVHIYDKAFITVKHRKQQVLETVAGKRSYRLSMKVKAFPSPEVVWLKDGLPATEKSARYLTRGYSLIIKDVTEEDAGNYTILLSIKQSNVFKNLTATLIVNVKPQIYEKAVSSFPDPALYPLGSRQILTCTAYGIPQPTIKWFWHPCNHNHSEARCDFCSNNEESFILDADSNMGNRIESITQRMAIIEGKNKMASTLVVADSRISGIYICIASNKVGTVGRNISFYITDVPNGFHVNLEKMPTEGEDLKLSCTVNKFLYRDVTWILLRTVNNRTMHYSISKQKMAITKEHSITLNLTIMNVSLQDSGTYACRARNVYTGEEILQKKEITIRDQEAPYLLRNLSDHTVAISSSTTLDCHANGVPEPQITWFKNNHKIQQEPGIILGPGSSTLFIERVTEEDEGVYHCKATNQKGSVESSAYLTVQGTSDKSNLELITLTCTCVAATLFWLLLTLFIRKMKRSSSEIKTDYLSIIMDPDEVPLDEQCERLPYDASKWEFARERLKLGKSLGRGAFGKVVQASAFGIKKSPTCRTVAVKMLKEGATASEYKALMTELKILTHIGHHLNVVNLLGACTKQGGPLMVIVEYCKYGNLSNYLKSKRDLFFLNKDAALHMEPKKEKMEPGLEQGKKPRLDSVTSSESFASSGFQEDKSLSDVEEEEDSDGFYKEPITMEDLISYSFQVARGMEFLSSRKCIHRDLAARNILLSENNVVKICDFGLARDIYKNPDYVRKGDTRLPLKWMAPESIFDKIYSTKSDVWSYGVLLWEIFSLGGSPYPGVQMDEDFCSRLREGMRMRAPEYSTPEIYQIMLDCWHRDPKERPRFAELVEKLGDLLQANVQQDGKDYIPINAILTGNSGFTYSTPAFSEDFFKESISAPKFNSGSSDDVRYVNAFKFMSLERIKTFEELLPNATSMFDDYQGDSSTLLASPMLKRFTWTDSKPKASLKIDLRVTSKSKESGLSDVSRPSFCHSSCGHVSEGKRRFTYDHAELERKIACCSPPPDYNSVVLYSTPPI

C=CC(=O)Nc1ccc(Sc2nc(Nc3ccc(N4CCC(C(=O)OCC)CC4)cc3)ncc2C)cc1 [Compound 292, ethyl 1-(4-(4-(4-acrylamidophenylthio)-5-methylpyrimidin-2-ylao)phenyl)piperidine-4-carboxylate]
inhibition at 0.5 µM (Flt 1(h)): 67%
inhibition at 0.5 µM (KDR(h)): 96%
inhibition at 0.5 µM (Blk(m)): 10%
inhibition at 0.5 µM (Bmx(h)): 59%
inhibition at 0.5 µM (BTK(h)): 3%
inhibition at 0.5 µM (Flt 4(h)): 100%

C=CC(=O)Nc1ccc(Sc2nc(Nc3ccc(N4CCOCC4)cc3)ncc2C)cc1 [Compound 124, N-(4-(5-methyl-2-(4-morpholinophenylao)pyrimidin-4-ylthio)phenyl)acrylamide]
inhibition at 0.5 µM (Flt 1(h)): 100%
inhibition at 0.5 µM (KDR(h)): 100%
inhibition at 0.5 µM (Blk(m)): 100%
inhibition at 0.5 µM (Bmx(h)): 100%
IC50 (human CSF1-R (FMS)): < 500 nM
inhibition at 0.5 µM (BTK(h)): 100%
inhibition at 0.5 µM (Flt 4(h)): 100%

C=CC(=O)Nc1ccc(Sc2nc(Nc3ccc(CNS(C)(=O)=O)cc3)ncc2C)cc1 [Compound 294, N-(4-(5-methyl-2-(4-(methylsulfonamidomethyl)phenylao)pyrimidin-4-ylthio)phenyl)acrylamide]
inhibition at 0.5 µM (Flt 1(h)): 94%
inhibition at 0.5 µM (KDR(h)): 93%
inhibition at 0.5 µM (Blk(m)): 37%
inhibition at 0.5 µM (Bmx(h)): 92%
inhibition at 0.5 µM (BTK(h)): 77%
inhibition at 0.5 µM (Flt 4(h)): 100%

COc1ccc(Nc2nccc(Sc3ccc(NC(=O)CC#N)cc3)n2)cc1OC [Compound 101, 2-cyano-N-(4-(2-(3,4-dimethoxyphenylao)pyrimidin-4-ylthio)phenyl)acetamide]
IC50 (human CSF1-R (FMS)): < 100 nM
